Source: paper PMC8434392, “Harnessing the Anti-Nociceptive Potential of NK2 and NK3 Ligands in the Design of New Multifunctional μ/δ-Opioid Agonist–Neurokinin Antagonist Peptidomimetics” (Molecules, 2021)

Key:
[1] = molecular target: hMOR; set-up: method as in PMID 15094830, PMID 32365707; conditions: Figure 1B; read-out: Ki (CHO-hMOR); cited from earlier work
[2] = system: hMOR; set-up: method as in PMID 15094830, PMID 32365707; conditions: Figure 1B; read-out: EC50 (CHO-hMOR); cited from earlier work
[3] = system: NK3 receptor; set-up: method as in PMID 17728699; conditions: Figure 1A; cited from earlier work
[4] = molecular target: hNK3; set-up: method as in PMID 17728699; conditions: Figure 1A; cited from earlier work
[5] = system: NK3 receptor; set-up: method as in PMID 17728699; conditions: Figure 1A; cited from earlier work; remark: listed apart in the source
[6] = molecular target: T1, human recombinant MOR (Homo sapiens, UniProt P35372); assay: Calcium mobilization assay, CHO MOR cells with Gαqi5; type: cell-based; conditions: intrinsic activity: Emax of ligand / Emax of dermorphin
T1 construct: expressed in transfected cells; host or cells: CHO cells (gift from Prof. Girolamo Calo', Ferrara University)
T1 sequence (P35372 whole entry): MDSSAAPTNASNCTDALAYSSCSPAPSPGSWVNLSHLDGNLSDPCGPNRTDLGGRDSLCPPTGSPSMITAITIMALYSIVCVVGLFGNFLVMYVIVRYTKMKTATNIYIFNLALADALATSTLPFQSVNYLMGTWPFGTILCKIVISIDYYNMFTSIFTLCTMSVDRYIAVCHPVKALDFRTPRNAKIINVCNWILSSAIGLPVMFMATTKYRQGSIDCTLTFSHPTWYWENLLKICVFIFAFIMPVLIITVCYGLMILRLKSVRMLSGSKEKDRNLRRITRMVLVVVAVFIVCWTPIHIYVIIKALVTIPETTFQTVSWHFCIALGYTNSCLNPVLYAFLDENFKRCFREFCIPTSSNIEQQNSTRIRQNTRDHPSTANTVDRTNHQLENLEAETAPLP

[7] = molecular target: T2, human recombinant KOR (Homo sapiens, UniProt P41145); assay: Calcium mobilization assay, CHO KOR cells with Gαqi5; type: cell-based
T2 construct: expressed in transfected cells; host or cells: CHO cells (gift from Prof. Girolamo Calo', Ferrara University)
T2 sequence (P41145 whole entry): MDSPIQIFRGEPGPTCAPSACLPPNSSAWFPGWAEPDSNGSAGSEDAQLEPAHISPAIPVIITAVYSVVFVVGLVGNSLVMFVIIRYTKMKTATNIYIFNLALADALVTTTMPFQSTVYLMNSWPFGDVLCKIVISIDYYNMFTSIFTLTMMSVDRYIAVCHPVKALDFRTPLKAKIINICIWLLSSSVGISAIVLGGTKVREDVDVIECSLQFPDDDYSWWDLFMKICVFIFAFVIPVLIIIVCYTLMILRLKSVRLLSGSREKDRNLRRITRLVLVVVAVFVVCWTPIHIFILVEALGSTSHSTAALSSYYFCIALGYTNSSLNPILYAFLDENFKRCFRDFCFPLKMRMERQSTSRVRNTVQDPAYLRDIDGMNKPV

[8] = molecular target: T3, human recombinant DOR (Homo sapiens, UniProt P41143); set-up: method as in PMID 23007594; conditions: data from reported literature ref 30, cited from earlier work
T3 construct: expressed in transfected cells; host or cells: CHO cells (gift from Prof. Girolamo Calo', Ferrara University)
T3 sequence (P41143 whole entry): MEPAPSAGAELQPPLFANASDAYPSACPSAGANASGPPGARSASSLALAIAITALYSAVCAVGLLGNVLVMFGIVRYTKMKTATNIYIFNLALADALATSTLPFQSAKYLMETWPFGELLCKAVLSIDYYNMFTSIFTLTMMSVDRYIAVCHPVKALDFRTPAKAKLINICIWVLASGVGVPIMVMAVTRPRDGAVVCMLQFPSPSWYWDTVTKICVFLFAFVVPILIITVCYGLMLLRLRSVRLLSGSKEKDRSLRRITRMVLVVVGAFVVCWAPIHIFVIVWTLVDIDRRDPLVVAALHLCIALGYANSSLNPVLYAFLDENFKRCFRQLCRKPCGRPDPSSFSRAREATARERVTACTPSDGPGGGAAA

Cc1cc(O)cc(C)c1C[C@H](N)C(=O)N[C@H](CCCNC(=N)N)C(=O)N[C@@H](Cc1ccccc1)C(=O)N[C@@H](CCCCN)C(N)=O [Dmt-DALDA, H-Dmt-D-Arg-Phe-Lys-NH2]
Ki [1]: 230 pM | EC50 [2]: 510 pM

CC[C@H](NC(=O)c1c(O)c(-c2ccccc2)nc2ccccc12)c1ccccc1 [Talnetant]
pA2 (Ca2+ mobilisation) [3]: 8.1 | Ki [4]: 2000 pM | pA2 (IP accumulation) [5]: 7.7

C[C@@H](NC(=O)[C@@H](N)Cc1ccc(O)cc1)C(=O)N[C@@H](Cc1ccccc1)C(=O)NCC(=O)N[C@@H](Cc1ccc(O)cc1)C(=O)N1CCC[C@H]1C(=O)N[C@@H](CO)C(N)=O [dermorphin, reference compound]
MOR α ± SEM [6]: 1.00 | KOR EC50 ± SEM (nM) ([7]; calcium mobilization, CHO KOR Gαqi5, maximum tested concentration 10 µM, crc = concentration-response curve): inactive | KOR α ± SEM ([7]; intrinsic activity: Emax of ligand / Emax of dynorphin A): inactive | DOR EC50 ± SEM (nM) ([8]; calcium mobilization, chimeric G protein): Inactive ^a | DOR α ± SEM ([8]; intrinsic activity): Inactive ^a
